According to patent US7109338B2, “1,2-disubstituted 1,4-dihydro-4-oxoquinoline compounds” (priority 1999, dated 2006):
≈ marks a conversion by molar mass, not a printed value.

Tests used:
[1] = system: Poliovirus type 1 (Polio 1, Sabin); assay: microbe, parasite or virus in culture; type: cell-based
[2] = system: echovirus type 11 (Echo 11, Gregory); assay: In vitro anti-picornavirus activity (MTT), Echo 11; type: cell-based; details: HeLa-S3 cells, MTT method, 37° C.
[3] = system: coxsackievirus type A7 (CA7); assay: In vitro anti-picornavirus activity (MTT), CA7; type: cell-based; details: HeLa-S3 cells, MTT method, 37° C.
[4] = system: coxsackievirus type B4 (CB4,JVB); assay: In vitro anti-picornavirus activity (MTT), CB4; type: cell-based; details: HeLa cells, MTT method, 37° C.
[5] = system: human rhinovirus type 1B (HRV 1B, B632); assay: Anti-rhinovirus activity (MTT), HRV1B; type: cell-based; details: HeLa (Ohio strain) cells, MTT method, 33° C.
[6] = system: HRV 2 (HGP); assay: Anti-rhinovirus activity (MTT), HRV2; type: cell-based, human rhinovirus; details: HeLa (Ohio strain) cells, MTT method, 33° C.
[7] = system: HRV 89 (41617-Gallo); assay: Anti-rhinovirus activity (MTT), HRV89; type: cell-based, human rhinovirus; details: HeLa (Ohio strain) cells, MTT method, 33° C.
[8] = system: HeLa cells; assay: Cytotoxicity (MTT, without virus), HeLa; details: HeLa, no virus, incubated for 4 days
[9] = system: HeLa-S3 cells; assay: Cytotoxicity (MTT, without virus), HeLa-S3; details: HeLa-S3, no virus, incubated for 4 days
[10] = system: HeLa (Ohio strain)cells; assay: Cytotoxicity (MTT, without virus), HeLa(Ohio); details: HeLa(Ohio), no virus, incubated for 4 days

Compound | IC50 Polio 1 [1] [µg/mL] | IC50 Echo 11 [2] [µg/mL] | IC50 CA7 [3] [µg/mL] | IC50 CB4 [4] [µg/mL] | IC50 HRV1B [5] [µg/mL] | IC50 HRV2 [6] [µg/mL] | IC50 HRV89 [7] [µg/mL] | Cytotoxicity CC50 HeLa [8] [µg/mL] | Cytotoxicity CC50 HeLa-S3 [9] [µg/mL] | Cytotoxicity CC50 HeLa(Ohio) [10] [µg/mL]
COc1ccc(-c2cc(=O)c3cc(C(C)C)ccc3n2C)cc1C [Compound A97] | 0.54 (≈ 1.68 µM) | 0.3 (≈ 0.933 µM) | 2.1 (≈ 6.53 µM) | 1.4 (≈ 4.36 µM) | 0.58 (≈ 1.8 µM) | 0.61 (≈ 1.9 µM) | 0.14 (≈ 0.436 µM) | 5.1 | >10 | 4.5
CCn1c(-c2ccc(OC)c(C)c2)cc(=O)c2cc(C(C)C)ccc21 [Compound A98] | 0.66 (≈ 1.97 µM) | 0.26 (≈ 0.775 µM) | 2.9 (≈ 8.65 µM) | 1.2 (≈ 3.58 µM) | 0.78 (≈ 2.33 µM) | 0.42 (≈ 1.25 µM) | 0.36 (≈ 1.07 µM) | >4 | >4 | >4
CCOc1ccc(-c2cc(=O)c3cc(C(C)C)ccc3n2C)cc1C [Compound A99] | 0.55 (≈ 1.64 µM) | 0.20 (≈ 0.596 µM) | 1.8 (≈ 5.37 µM) | 1.1 (≈ 3.28 µM) | 0.63 (≈ 1.88 µM) | 0.50 (≈ 1.49 µM) | 0.14 (≈ 0.417 µM) | 5.4 | 5.8 | 5.7
Cc1cc(-c2cc(=O)c3cc(C(C)C)ccc3n2C)ccc1OC(C)C [Compound A100] | 0.57 (≈ 1.63 µM) | 0.24 (≈ 0.687 µM) | 4.5 (≈ 12.9 µM) | 1.4 (≈ 4.01 µM) | 0.85 (≈ 2.43 µM) | 0.43 (≈ 1.23 µM) | 0.20 (≈ 0.572 µM) | >5 | >5 | >5
CCn1c(-c2ccccc2)c(C)c(=O)c2ccc(C(C)C)cc21 [Compound A122] | 1.2 (≈ 3.93 µM) | 0.54 (≈ 1.77 µM) | 6.9 (≈ 22.6 µM) | 5.5 (≈ 18 µM) | 0.59 (≈ 1.93 µM) | 0.43 (≈ 1.41 µM) | 0.35 (≈ 1.15 µM) | >10 | >10 | >10
CCn1c(-c2ccccc2)c(C)c(=O)c2cc(OCC(C)C)ccc21 [Compound A130] | 0.86 (≈ 2.56 µM) | 0.32 (≈ 0.954 µM) | 0.17 (≈ 0.507 µM) | >4 | 0.90 (≈ 2.68 µM) | 0.65 (≈ 1.94 µM) | 0.72 (≈ 2.15 µM) | >4 | >4 | >4
Cc1c(-c2ccccc2)n(C)c2ccc(NCC(C)C)cc2c1=O [Compound A157] | 0.59 (≈ 1.84 µM) | 0.27 (≈ 0.843 µM) | 3.8 (≈ 11.9 µM) | 4.9 (≈ 15.3 µM) | 1.0 (≈ 3.12 µM) | 0.56 (≈ 1.75 µM) | 1.3 (≈ 4.06 µM) | >5 | >5 | >5
